In patent US20040186022A1, “Enhanced herbicides” (priority 1999, published 2004):

Assays:
[1] = tested on: Kentucky bluegrass, velvetleaf, foxtail, tomato, potato and snapbeans
From the text: (§1) The herbicides were applied in the “spray to drip” amount or at a calibrated 20-60 gallons/acre. “Spray to drip” is an uncalibrated application of fluid to foliage, where sufficient spray volume is used to sufficiently saturate the foliage surface until excess fluid begins to drip from the foliage.

[2] = tested on: soybeans; assay: Synergistic relationships: succinic acid + caprylic acid, succinic acid + sodium salicylate, testing soybeans; type: in vivo; settings: 3 days after a single foliar application, soybean Stine 2250; for Overall Effect: 5 equals profound desiccation
From the text: as §1

[3] = tested on: 40 G/a: crab grass, chickweed and common lambsquarter; 60 G/a: redtop, pigweed, foxtail; spray to drip: barnyard grass, foxtail, sudan grass and nutsedge; assay: Herbicidal combinations of caprylic/capric (c/c) or pelargonic acid with equimolar succinic acid and ammonium succinate, on weed varieties; type: in vivo
[4] = tested on: plants; assay: Herbicidal enhancement of pelargonic by succinic acid and diammonium succinate; type: in vivo
From the text: as §1

[5] = tested on: Potato, variety Katahdin; assay: Potato field trial: 2 applications of selected herbicides, including Desiccate II; type: in vivo; settings: scale 1-5
From the text: as §1

[6] = tested on: 60 G/a: redroot pigweed, foxtail and velvetleaf; spray to drip: foxtail, dry beans and pigweed; assay: Herbicidal activity: caprylic acid and succinic acid +/- ammonium sulfate; type: in vivo
From the text: as §1

[7] = Measurement of pH values for test desiccants (Example 56); type: physicochemical
[8] = tested on: 60 G/a: lambsquarter, pigweed and velvetleaf; spray to drip: lambsquarter and foxtail; assay: Herbicidal activity of caproic acid with succinic acid and sodium salicylate; type: in vivo; settings: for Total Injury ratings, Total score: 60 G/a plus spray to drip; for Total injury ratings, 60 G/a: 4 pots/treatment, lambsquarter, pigweed and velvetleaf, rating 1-5 per pot; for Total injury ratings, Spray to drip: 2 pots/treatment, lambsquarter and foxtail
From the text: as §1

[9] = tested on: navy dry beans (navy Vista); assay: Synergistic interactions of succinic acid and di-ammonium succinate with herbicidal compounds, navy dry beans; type: in vivo, dry bean (navy); settings: for Injury rating, average per plot: scale 1-5
From the text: as §1

[10] = tested on: black beans (dry bean variety T39); assay: Synergistic interactions of succinic acid and di-ammonium succinate with other herbicidal compounds, dry beans (black); type: in vivo; settings: for Injury rating, average per plot: scale 1-5
From the text: as §1

[11] = tested on: 40 G/a: crab grass, pigweed, chick weed and foxtail; 60 G/a: pigweed, Kentucky bluegrass, foxtail, crab grass and barnyard grass; spray to drip: Kentucky …; assay: Herbicidal activities: synergy between succinic acid and pelargonic acid; type: in vivo
From the text: as §1

[12] = tested on: plants; assay: Synergistic relationship between succinic acid and caprylic/capric acids C/C, herbicidal activity; type: in vivo
From the text: as §1

[13] = tested on: chickweed, redtop, velvetleaf, crabgrass and green foxtail; assay: Enhancement of herbicidal activity of caprylic/capric acids (c/c) using selected compounds at equimolar amounts; type: in vivo
From the text: as §1

[14] = tested on: 60 G/a: lambsquarter, pigweed, velvetleaf and foxtail; spray to drip: velvetleaf and foxtail; assay: Herbicidal activity of caprylic acid combined with salts of succinate +/- sodium salicylate; type: in vivo
From the text: as §1

[15] = tested on: 60 G/a: black nightshade, redroot pigweed, lambsquarter, foxtail, velvetleaf and snapbeans; spray to drip: redroot pigweed, lambsquarter, velvetleaf and …; assay: Efficacy of 2% caprylic with succinic or ammonium succinate in an emulsification system (Emsorb 6900); type: in vivo
From the text: as §1

[16] = tested on: young potato plants; assay: Effects of desiccants and desiccant combinations with other compounds on young potato plants; type: in vivo; design: All evaluations (total score): scale not given here
From the text: as §1

[17] = tested on: 60 G/a: black nightshade, redroot pigweed, foxtail, lambsquarter and snapbeans; spray to drip: redroot pigweed, velvetleaf, nutsedge and foxtail; assay: Efficacy of 3% caprylic with succinic or ammonium succinate in an emulsification system (Emsorb 6900); type: in vivo
From the text: as §1

[18] = tested on: 60 G/a: velvetleaf, black nightshade, redroot pigweed, foxtail and snapbeans; spray to drip: black nightshade, velvetleaf, foxtail and snapbeans; assay: Efficacy of 1.5% succinic acid with oleic, caprylic or pelargonic acid in an emulsification system (Emsorb 6900); type: in vivo; design: Injury rating, total score for 2 evaluation, Spray to drip / Injury rating, total score for 2 evaluation, Total Rating: scale not given here
From the text: as §1

[19] = tested on: plants; assay: Herbicidal activity: comparison of caprylic, pelargonic and an equimolar mixture of caprylic and pelargonic acids; type: in vivo
From the text: The herbicides were applied in the “spray to drip” amount or at a calibrated 20-60 gallons/acre. “Spray to drip” is an uncalibrated application of fluid to foliage, where sufficient spray volume is used to sufficiently saturate the foliage surface until excess fluid begins to drip from the foliage. In general, about 5 to 200 gallons/acre, preferably 20-100 gallons/acre can be effective.

[20] = tested on: soybeans; assay: Synergy comparisons of various organic acids with caprylic acid, testing soybeans; type: in vivo; settings: 3 days after a single foliar application, average of 2 sites, soybean Stine 2250
From the text: as §1

[21] = Measurement of pH values for test desiccants (Example 55); type: physicochemical
[22] = tested on: Turf; assay: Synergistic relationships between succinic acid and caprylic acid (or sodium salicylate), testing turf; type: in vivo; settings: 2 days after a single foliar application, 5 equals profound desiccation
From the text: as §1

[23] = 40 G/a, 60 G/a and spray to drip
[24] = rating 1 to 5, 5 = complete desiccation of all plants
[25] = Day 1, one application at 40 G/acre, treatments 1-4, 9-11 in Emsorb 6900/mineral oil/Hasten, 5-8, 12-14 in 0.3% Sylgard 309
[26] = Day 2, one application at 40 G/acre, treatments 1-4, 9-11 in Emsorb 6900/mineral oil/Hasten, 5-8, 12-14 in 0.3% Sylgard 309
[27] = 60 G/a, rating 1-5 per pot, 1% Emsorb, 0.3% Hasten

## O=C([O-])c1ccccc1O.[Na+] [1.5% sodium salicylate, sodium salicylate]
[1]; rating 1-5 per pot, three evaluations, 30% acetone, 0.3% Sylgard 309
  Injury rating, Spray to drip: 56.2
[1]; scale 1-5, spray to drip
  Injury rating, Average rating per pot: 3.51

## CCCCCCCC(=O)O [Caprylic Acid (1%)]
[2]
  Foliage Affected (%): 25-30%
  Overall Effect: 2.5

## CCCCCCCCC(=O)O [3% pelargonic acid, pelargonic acid]
[3]; [23]
  Total injury ratings, Total: 185.8
[3]; 40 G/a, 10 pots/treatment, two evaluations, rating 1-5 per pot, 1% Emsorb 6900
  Total injury ratings, 40 G/a: 87.7
[3]; 60 G/a, 7 pots/treatment, two evaluations
  Total injury ratings, 60 G/a: 60.8
[3]; scale 1-5
  Average rating/pot: 4.42
[3]; spray to drip, 8 pots/treatment, one evaluation
  Total injury ratings, Spray to drip: 37.3

## CCCCCCCCC(=O)O [2.5% pelargonic]
[4]; 40 G/a: lambsquarter, velvetleaf and green foxtail, each pot rated 1 to 5
  Injury ratings based on 2 independent evaluations, 40 G/a: 79.2
[4]; 60 G/a: pigweed, chickweed, crabgrass, green foxtail, velvetleaf, lambsquarter and wheat, each pot rated 1 to 5
  Injury ratings based on 2 independent evaluations, 60 G/a: 102.2
[4]; Spray to drip: nutsedge, velvetleaf, green foxtail, giant foxtail and barnyard grass, each pot rated 1 to 5
  Injury ratings based on 2 independent evaluations, Spray to drip: 53.8
[4]; [24]
  Average rating per pot: 4.36

## CCCCCCCCC(=O)O [5% pelargonic, pelargonic acid]
[5]; Day 1, 40-42 G/acre, 2nd treatment 2 days after 1st
  Injury rating, average per plot: 4.07
[5]; Day 2
  Injury rating, average per plot: 4
[5]; Day 3
  Injury rating, average per plot: 4.13
[5]; Day 5
  Injury rating, average per plot: 4.43

## CCCCCCCC(=O)O [4% caprylic acid, caprylic acid]
[6]; 60 G/a plus spray to drip
  Total Injury ratings, combined, for two separate evaluations, Total Rating: 116.8
[6]; 60 G/a, 7 pots/treatment, rating 1-5 per pot, 1% Emsorb 6900
  Total Injury ratings, combined, for two separate evaluations, 60 G/a: 60.7
[6]; scale 1-5
  Average rating/pot: 4.49
[6]; spray to drip, 6 pots/treatment
  Total Injury ratings, combined, for two separate evaluations, Spray to drip: 56.1

## O=C([O-])c1ccccc1O.[Na+] [Sodium Salicylate (0.5%)]
[7]
  pH Value: 4.48

## CCCCCC(=O)O [2% caproic, caproic acid]
[8]
  Total Injury ratings, Total score: 18.5
  Total injury ratings, 60 G/a: 11.2
  Total injury ratings, Spray to drip: 7.3

## NCCC(=O)O [Beta-Alanine (0.5%)]
[7]
  pH Value: 6.65

## O=C(O)CCC(=O)O [0.5% succinic acid, succinic acid]
[9]; [25]
  Injury rating, average per plot: 0
[9]; Day 2
  Injury rating, average per plot: 0
[9]; Day 3
  Injury rating, average per plot: 0
[9]; Day 4
  Injury rating, average per plot: 0
[9]
  % desiccation (Day 12), foliage: 0%
  % desiccation (Day 12), pods: 0%
  % desiccation (Day 12), vines: 0%
[9]; Day 12
  Injury rating, average per plot: 0
[10]; [26]
  Injury rating, average per plot: 0
[10]
  % desiccation (Day 12), foliage: 0%
  % desiccation (Day 12), pods: 0%
  % desiccation (Day 12), vines: 0%
[10]; Day 12
  Injury rating, average per plot: 0
[11]; [23]
  Total injury ratings, Total: 0
[11]; 40 G/a, 9 pots/treatment, rating 1-5 per pot, 1.125% Emsorb 6900
  Total injury ratings, 40 G/a: 0
[11]; 60 G/a, 10 pots/treatment
  Total injury ratings, 60 G/a: 0
[11]; spray to drip, 7 pots/treatment
  Total injury ratings, Spray to drip: 0
[12]; 40 G/a + 60 G/a
  Injury ratings, Total: 0
[12]; 40 G/acre: Canadian thistle, velvet leaf, Johnson grass and giant foxtail, each pot rated 1 to 5
  Injury ratings based on 2 independent evaluations, 40 G/a: 0
[12]; 60 G/acre: velvetleaf, Johnson grass and giant foxtail, each pot rated 1 to 5
  Injury ratings based on 2 independent evaluations, 60 G/a: 0
[12]; [24]
  Average rating per pot: 0

## O=C(O)CCC(=O)O [succinic acid (1%), succinic acid]
[13]; Day 2 after treatment, 40 G/acre, 8 pots, rating 1-5 per pot, […] Emsorb 6900, […] mineral oil
  Relative injury ratings, Day #2: 0
[13]; Day 4 after treatment
  Relative injury ratings, Day #4: 0
[13]; Day 5 after treatment
  Relative injury ratings, Day #5: 0
[13]; scale 1-5
  Average rating per pot: 0
[2]
  Foliage Affected (%): 0%
  Overall Effect: 0

## CCCCCCCC(=O)O [2% caprylic, caprylic acid]
[14]; 60 G/a plus spray to drip
  Total Injury ratings, Total score: 69.2
[14]; 60 G/a, 8 pots/treatment, 2 evaluations, rating 1-5 per pot, 1% Emsorb 6900
  Total injury ratings, 60 G/a: 61
[14]; spray to drip, 2 pots/treatment, velvetleaf and foxtail, 1 evaluation
  Total injury ratings, Spray to drip: 8.2
[15]; 60 G/a plus spray to drip
  Injury rating, total score for 2 evaluations, Total Rating: 123.4
[15]; [27]
  Injury rating, total score for 2 evaluations, 60 G/a: 73.6
[15]; scale 1-5
  Average rating per pot: 4.11
[15]; spray to drip
  Injury rating, total score for 2 evaluations, Spray to drip: 49.8
[16]; 1 day after application, 6 = complete desiccation
  Injury ratings of treated plants, day 1: 5
[16]; 3 days after application, 6 = complete desiccation
  Injury ratings of treated plants, day 3: 5
[16]; 6 days after application, 6 = complete desiccation
  Injury ratings of treated plants, day 6: 5
[16]; 17 days after application, 6 = complete desiccation
  Injury ratings of treated plants, day 17: 5
[16]; 22 days after application, 6 = complete desiccation
  Injury ratings of treated plants, day 22: 5.5
[16]; 27 days after application, 6 = complete desiccation
  Injury ratings of treated plants, day 27: 5.5
[16]; […] after application, 6 = complete desiccation
  Injury ratings of treated plants, […]: 3.5
[16]; total of all evaluation times
  All evaluations (total score): 34.5

## CCCCCC(=O)O [3% caproic, caproic acid]
[8]
  Total Injury ratings, Total score: 20.9
  Total injury ratings, 60 G/a: 13.9
  Total injury ratings, Spray to drip: 7

## CCCCCCCC(=O)O [3% caprylic, caprylic acid]
[9]; [25]
  Injury rating, average per plot: 3.5
[9]; Day 2
  Injury rating, average per plot: 3.93
[9]; Day 3
  Injury rating, average per plot: 3.93
[9]; Day 4
  Injury rating, average per plot: 4
[9]
  % desiccation (Day 12), foliage: 50%
  % desiccation (Day 12), pods: 80%
  % desiccation (Day 12), vines: 10%
[9]; Day 12
  Injury rating, average per plot: 4.2
[10]; [26]
  Injury rating, average per plot: 4
[10]
  % desiccation (Day 12), foliage: 80%
  % desiccation (Day 12), pods: 95%
  % desiccation (Day 12), vines: 92%
[10]; Day 12
  Injury rating, average per plot: 4.73
[17]; 60 G/a plus spray to drip
  Injury rating, total score for 2 evaluations, Total Rating: 178.4
[17]; [27]
  Injury rating, total score for 2 evaluations, 60 G/a: 142
[17]; scale 1-5
  Average rating per pot: 4.05
[17]; spray to drip
  Injury rating, total score for 2 evaluations, Spray to drip: 36.6
[18]; 60 G/a plus spray to drip
  Injury rating, total score for 2 evaluation, Total Rating: 123.5
[18]; [27]
  Injury rating, total score for 2 evaluation, 60 G/a: 88.1
[18]; scale 1-5
  Average rating per pot: 4.41
[18]; spray to drip
  Injury rating, total score for 2 evaluation, Spray to drip: 35.4
[19]; 40 G/acre: chickweed, redroot pigweed, lambsquarter and green foxtail, each pot rated 1 to 5
  Injury ratings based on 2 independent evaluations, 40 G/acre: 40.8
[19]; 60 G/acre: chickweed, redroot pigweed, lambsquarter, green foxtail, crabgrass and wheat, each pot rated 1 to 5
  Injury ratings based on 2 independent evaluations, 60 G/acre: 51.6
[19]; [24]
  Average rating per pot: 4.16

## O=C(O)C(O)C(O)C(=O)O [L-Tartaric Acid (0.5%)]
[20]
  Foliage Affected (%): 0%
[20]; 5 equals profound desiccation
  Overall Effect: 0
[21]
  pH Value: 1.52
[7]
  pH Value: 1.72

## O=C(O)CCC(=O)O [Succinic Acid (0.5)]
[22]
  Overall Effect: 0

## N.N.O=C(O)CCC(=O)O [ammonium succinate]
[3]; footnote
  Rating of additive tested alone: Since succinic acid (or ammonium succinate) tested alone had a rating of zero, pelargonic acid (or c/c) + succinic acid (or ammonium succinate) were synergistic. The exception was: 3% pelargonic acid + 1.26% ammonium succinate
